# From patent publication US20100075930A1, “Salicylic salt compositions and related method of treatment of cardiac conditions” (priority 2008, published 2010)
# Where two headings read alike, the source gives them in different places.
# Assays:
# [1] = cited from earlier work
# [2] = low doses, 75-100 mg daily; cited from earlier work
# [3] = cited from earlier work; remark: listed apart in the source
# [4] = cited from earlier work; remark: listed apart in the source
# [5] = for level of salicylic acid in the blood: 1000 mg under the tongue
# Experimental: In order to assess the ability and the rate of absorption of a choline salicylate tablet under the tongue, the following experiment was conducted:
smiles,measurement,setting,value
"CC(=O)Oc1ccccc1C(=O)O [Aspirin, acetyl salicylic acid]",level of salicylic acid in the blood,"[1]; after digestion of 1000 mg, reached after 2 hours only",100 mg/Lt
same,reduction of coronary events,[2],50%
same,"patients who develop ulcers, perforations, bleeding, obstruction, stricture and/or enteropathy",[3]; patients taking aspirin,More than 22%
same,water solubility,[4],not soluble in water
C[N+](C)(C)CCO.O=C([O-])c1ccccc1O [choline salicylate],level of salicylic acid in the blood,[5]; after 4 minutes,21 mg/Lt
same,level of salicylic acid in the blood,[5]; time 0 min,0.111 mmol/L
same,level of salicylic acid in the blood,"[5]; time 0 min, conversion factor 0.00724",15.331 mg/L
same,level of salicylic acid in the blood,[5]; time 2 min,0.124 mmol/L
same,level of salicylic acid in the blood,"[5]; time 2 min, conversion factor 0.00724",17.127 mg/L
same,level of salicylic acid in the blood,[5]; time 4 min,0.155 mmol/L
same,level of salicylic acid in the blood,"[5]; time 4 min, conversion factor 0.00724",21.409 mg/L
same,level of salicylic acid in the blood,[5]; time 6 min,0.132 mmol/L
same,level of salicylic acid in the blood,"[5]; time 6 min, conversion factor 0.00724",18.232 mg/L
same,level of salicylic acid in the blood,[5]; time 8 min,0.096 mmol/L
same,level of salicylic acid in the blood,"[5]; time 8 min, conversion factor 0.00724",13.260 mg/L
same,level of salicylic acid in the blood,[5]; time 10 min,0.089 mmol/L
same,level of salicylic acid in the blood,"[5]; time 10 min, conversion factor 0.00724",12.293 mg/L
same,level of salicylic acid in the blood,[5]; time 12 min,0.074 mmol/L
same,level of salicylic acid in the blood,"[5]; time 12 min, conversion factor 0.00724",10.221 mg/L
same,level of salicylic acid in the blood,[5]; time 14 min,0.067 mmol/L
same,level of salicylic acid in the blood,"[5]; time 14 min, conversion factor 0.00724",9.254 mg/L
same,level of salicylic acid in the blood,[5]; time 19 min,0.039 mmol/L
same,level of salicylic acid in the blood,"[5]; time 19 min, conversion factor 0.00724",5.387 mg/L
same,level of salicylic acid in the blood,[5]; time 24 min,0.023 mmol/L
same,level of salicylic acid in the blood,"[5]; time 24 min, conversion factor 0.00724",3.177 mg/L
same,level of salicylic acid in the blood,[5]; time 29 min,0.040 mmol/L
same,level of salicylic acid in the blood,"[5]; time 29 min, conversion factor 0.00724",5.525 mg/L
same,level of salicylic acid in the blood,[5]; time 34 min,0.036 mmol/L
same,level of salicylic acid in the blood,"[5]; time 34 min, conversion factor 0.00724",4.972 mg/L
same,level of salicylic acid in the blood,[5]; time 39 min,0.045 mmol/L
same,level of salicylic acid in the blood,"[5]; time 39 min, conversion factor 0.00724",6.215 mg/L
same,level of salicylic acid in the blood,[5]; time 44 min,0.054 mmol/L
same,level of salicylic acid in the blood,"[5]; time 44 min, conversion factor 0.00724",7.459 mg/L
same,salicylic acid presented and available to act in the blood,"[5]; 4 minutes after administration, assuming the blood volume is 5 litres",100 mg
same,time of salicylic acid blood level peak after administration,[5]; sublingual method,4 min
same,time of salicylic acid blood level peak after administration,[1]; oral administration,2 h
same,reduction of gastrointestinal complications,[3]; as a salt syrup (compared to acid tablet),40%
same,side effects in clinical use,[3]; syrup absorbed through the gastro intestinal tract,no major side effects
